From patent US20020177180A1, “pH-indicator based assay for selective enzymes” (ThermoGen, Inc., priority 1998, published 2002)
Where two headings read alike, the source gives them in different places.

Assays:
[1] = cited from earlier work; for pKa: reported value
[2] = test system: ThermoGen esterases; experiment: True substrate selectivity measurements (competitive, resorufin ester), esters as substrates of the ThermoGen esterases; format: biochemical
Procedure: Esterase solution (5 μL in 5 mM BES) was added to each well and the microplate was placed in the microplate reader, shaken for 5 s and the decrease in absorbance at 404 nm and the increase in absorbance at 574 nm were measured as often as permitted by the microplate reader, typically every 11 s. Data was collected for 20 minutes, at 25° C., in triplicate and was averaged. Activities were calculated from the equations above using the linear, initial portions of the curve.
However, it is faster to measure selectivity of each substrate as it competes against a third substrate, which we call a reference compound. The ratio of the two competitive reactions is the true selectivity. […] Since some substrates react rapidly while others react slowly, we require both fast-reacting and slow-reacting reference compounds. In some cases we replaced resorufin acetate with the slower reacting resorufin pivaloate or resorufin isobutyrate as reference compounds.
The true selectivity of the ThermoGen esterases toward different acyl chain length was determined using a competitive experiment. Resorufin esters were used as the competitive substrate as explained above and normalized the results to hexanoate =100, Table 7. The true selectivities were similar to the estimated selectivities.

[3] = test system: esterase E011; experiment: Initial screening of ThermoGen esterases toward esters 1-31 (pH indicator), specific activity; format: biochemical; settings: 1 mM substrate, pH 7.2, 7 vol % acetonitrile, 25° C.
Procedure: (§1) Initial screening measures the initial rate of hydrolysis of different esters. The rate of reaction was measured by monitoring the release of protons using a pH indicator, 4-nitrophenol. In this assay, the yellow color of the phenoxide disappears as the reaction proceeds. The amount of ester hydrolyzed can be measured quantitatively, as is known in the art.

[4] = test system: ThermoGen esterases; experiment: Initial screening (pH indicator): esters as substrates of the ThermoGen esterases, statements for the esterases as a group; format: biochemical; settings: esters 1-31, initial screening
Procedure: as §1
(§2) To survey the substrate selectivity of the ThermoGen esterases, the ability of the enzymes to hydrolyze thirty-one different commercially-available esters, Scheme 1 (FIG. 9, Table 6).
To evaluate the potential of the ThermoGen esterases for enantioselective reactions, the initial rates of hydrolysis of the esterases were measured using twenty-one pairs of enantiomers, Scheme 2, FIG. 10 and Tables 8-12. The ratio of these initial rates is an estimated enantioselectivity.

[5] = test system: esterase E016; experiment: Initial screening of ThermoGen esterases toward esters 1-31 (pH indicator), specific activity; format: biochemical; settings: 1 mM substrate, pH 7.2, 7 vol % acetonitrile, 25° C.
Procedure: as §1, §2

[6] = test system: esterase E015; experiment: as above; format: biochemical; settings: 1 mM substrate, pH 7.2, 7 vol % acetonitrile, 25° C.
Procedure: as §1, §2

[7] = test system: esterase E020; experiment: as above; format: biochemical; settings: 1 mM substrate, pH 7.2, 7 vol % acetonitrile, 25° C.
Procedure: as §1, §2

[8] = test system: esterase E014; experiment: as above; format: biochemical; settings: 1 mM substrate, pH 7.2, 7 vol % acetonitrile, 25° C.
Procedure: as §1, §2

[9] = test system: esterase E012; experiment: as above; format: biochemical; settings: 1 mM substrate, pH 7.2, 7 vol % acetonitrile, 25° C.
Procedure: as §1, §2

[10] = test system: esterase E006; experiment: as above; format: biochemical; settings: 1 mM substrate, pH 7.2, 7 vol % acetonitrile, 25° C.
Procedure: as §1, §2

[11] = physchem
Procedure: The large difference in the extinction coefficients of the protonated and deprotonated forms (200 vs 18,000 M^−1 cm^−1 at 404 nm) gave good sensitivity. The extinction coefficients changed slightly upon addition of cosolvent and was determined experimentally.

SMILES	pKa [1]	Specific activity, esterase E011 [3]	quality as substrate of the ThermoGen esterases (in words) [4]	Specific activity, esterase E016 [5]	Specific activity, esterase E015 [6]	Specific activity, esterase E020 [7]	Specific activity, esterase E014 [8]	Specific activity, esterase E012 [9]	Specific activity, esterase E006 [10]	further results
O=S(=O)(O)CCCN1CCN(CCO)CC1 [EPPS, N-[2-hydroxylethyl]piperazine-N′-[3-propanesulfonic acid]]	8.0									
O=S1(=O)OC(c2ccc(O)c(Cl)c2)(c2ccc(O)c(Cl)c2)c2ccccc21 [chlorophenol red]	6.0									
C=COC(=O)C(C)(C)C [Substrate 11, vinyl pivaloate]										quality as substrate in true selectivity measurements (in words) [2]: poor substrates
O=S(=O)(O)CCN1CCOCC1 [MES, 2-[N-morpholino]ethanesulfonic acid]	6.1									
C=COC(=O)c1ccccc1 [Substrate 10, vinyl benzoate]										quality as substrate in true selectivity measurements (in words) [2]: poor substrates
CC(=O)Oc1ccccc1 [Substrate 26]		270 mmol ester hydrolyzed/min/mg protein	best substrates	190 mmol ester hydrolyzed/min/mg protein	320 mmol ester hydrolyzed/min/mg protein	390 mmol ester hydrolyzed/min/mg protein	150 mmol ester hydrolyzed/min/mg protein	30 mmol ester hydrolyzed/min/mg protein	300 mmol ester hydrolyzed/min/mg protein	
O=[N+]([O-])c1ccc(O)cc1 [4-nitrophenol]	7.2									pKa upon addition of 10% ethanol ([1]; previously shown): 7.17
O=c1ccc2nc3ccc(O)cc3oc-2c1 [resorufin alcohol, resorufin]										pKa [11]: 8.15
Cc1cc(O)c(C(C)C)cc1C1(c2cc(C(C)C)c(O)cc2C)OS(=O)(=O)c2ccccc21 [thymol blue]	9.2									
CCOC(=O)C(F)(F)F [Substrate 17]		2.7 mmol ester hydrolyzed/min/mg protein	best substrates	1500 mmol ester hydrolyzed/min/mg protein	190 mmol ester hydrolyzed/min/mg protein	0.35 mmol ester hydrolyzed/min/mg protein	1.4 mmol ester hydrolyzed/min/mg protein	1200 mmol ester hydrolyzed/min/mg protein	1.7 mmol ester hydrolyzed/min/mg protein	
CCCC(=O)OCC [Substrate 13]		0.71 mmol ester hydrolyzed/min/mg protein	reacted much slower	3.5 mmol ester hydrolyzed/min/mg protein	2.0 mmol ester hydrolyzed/min/mg protein	3.0 mmol ester hydrolyzed/min/mg protein	0.40 mmol ester hydrolyzed/min/mg protein	<2 mmol ester hydrolyzed/min/mg protein	1.1 mmol ester hydrolyzed/min/mg protein	
COC(=O)C(O)c1ccccc1 (centres unmarked) [Substrate 21]		0.04 mmol ester hydrolyzed/min/mg protein	usually poor substrates	<2 mmol ester hydrolyzed/min/mg protein	<0.1 mmol ester hydrolyzed/min/mg protein	<0.2 mmol ester hydrolyzed/min/mg protein	<0.1 mmol ester hydrolyzed/min/mg protein	<2 mmol ester hydrolyzed/min/mg protein	<0.1 mmol ester hydrolyzed/min/mg protein	
